Legend:
[1] = laboratory experiments; website www.gcinutrients.com; cited from earlier work
[2] = tested on: IBS and/or IBD; test: Trials with a variety of patients using dosage forms of cetyl myristate alone; format: in vivo, human
[3] = tested on: Irritable Bowel Syndrome / chronic diarrhea; test: Earlier conventional medication of the trial patients (patient history); format: in vivo, human; details: for reduction of symptoms: Patient 3, IBS, tried over 40 years before the trial
Procedure: They were assessed by a gastroenterologist in 1989 and placed on long-term use of Imodium. This was given to reduce the number of bowel motions.
They also tried Colestid and was told to remain on this indefinitely to reduce their diarrhea.
Patient 3 was diagnosed with Irritable Bowel Syndrome, and over the next 40 years, tried many different medicines including Colestid sachets, Imodium, Codeine, cholestyramine, and Dicap. […] During this time, patient 3 has been admitted four times to a hospital for acute exacerbations of diarrhea.
Patient 4 has been diagnosed with irritable Bowel Syndrome for over a year and suffers from an extremely swollen abdomen with constant flatulence and diarrhea. Patient 4 has taken Mucilax, bran and has made major dietary alterations, all with no effect. Further effects of Irritable Bowel Syndrome to patient 4 included exhaustion, with the patient sleeping between 12-15 hours daily.

Compound: CCCCCCCCCCCCCCCCOC(=O)CCCCCCCCCCCCC [cetyl myristate]
- anti-arthritic activity [1]: negligible
- relief from the symptoms of IBS and/or IBD [2]: favorable responses

Compound: CN(C)C(=O)C(CCN1CCC(O)(c2ccc(Cl)cc2)CC1)(c1ccccc1)c1ccccc1 [Imodium]
- reduction of the number of bowel motions ([3]; Patient 1, long-term use from 1989, before the trial): some benefits from this but they did not improve sufficiently
- reduction of symptoms [3]: none of the medicines listed were able to reduce the symptoms

Compound: COc1ccc2c3c1O[C@H]1[C@@H](O)C=C[C@H]4[C@@H](C2)N(C)CC[C@@]341 [Codeine]
- reduction of symptoms [3]: none of the medicines listed were able to reduce the symptoms

Compound: cholestyramine
- reduction of symptoms [3]: none of the medicines listed were able to reduce the symptoms
